# What was measured:
# Experiment in all cases: radiometric filter-binding kinase assay, Kinase HotSpot
# Conditions in all cases: compound 0.5 µM; ATP 10 µM
# [1] = target: CDK5 CDK5R1 p25 (human) (UniProt Q00535+Q15078)
# [2] = target: CDK9 CCNK (human) (UniProt O75909+P50750)
# [3] = target: CDC42BPA (human) (UniProt Q5VT25)
# [4] = target: EPHA1 (human) (UniProt P21709)
# [5] = target: FLT1 (human) (UniProt P17948)
# [6] = target: ZAP70 (human) (UniProt P43403)
# [7] = target: YES1 (human) (UniProt P07947)
# [8] = target: MARK4 (human) (UniProt Q96L34)
# [9] = target: MYLK (human) (UniProt Q15746)
# Chain of MYLK (human) (Q15746 whole entry, looked up): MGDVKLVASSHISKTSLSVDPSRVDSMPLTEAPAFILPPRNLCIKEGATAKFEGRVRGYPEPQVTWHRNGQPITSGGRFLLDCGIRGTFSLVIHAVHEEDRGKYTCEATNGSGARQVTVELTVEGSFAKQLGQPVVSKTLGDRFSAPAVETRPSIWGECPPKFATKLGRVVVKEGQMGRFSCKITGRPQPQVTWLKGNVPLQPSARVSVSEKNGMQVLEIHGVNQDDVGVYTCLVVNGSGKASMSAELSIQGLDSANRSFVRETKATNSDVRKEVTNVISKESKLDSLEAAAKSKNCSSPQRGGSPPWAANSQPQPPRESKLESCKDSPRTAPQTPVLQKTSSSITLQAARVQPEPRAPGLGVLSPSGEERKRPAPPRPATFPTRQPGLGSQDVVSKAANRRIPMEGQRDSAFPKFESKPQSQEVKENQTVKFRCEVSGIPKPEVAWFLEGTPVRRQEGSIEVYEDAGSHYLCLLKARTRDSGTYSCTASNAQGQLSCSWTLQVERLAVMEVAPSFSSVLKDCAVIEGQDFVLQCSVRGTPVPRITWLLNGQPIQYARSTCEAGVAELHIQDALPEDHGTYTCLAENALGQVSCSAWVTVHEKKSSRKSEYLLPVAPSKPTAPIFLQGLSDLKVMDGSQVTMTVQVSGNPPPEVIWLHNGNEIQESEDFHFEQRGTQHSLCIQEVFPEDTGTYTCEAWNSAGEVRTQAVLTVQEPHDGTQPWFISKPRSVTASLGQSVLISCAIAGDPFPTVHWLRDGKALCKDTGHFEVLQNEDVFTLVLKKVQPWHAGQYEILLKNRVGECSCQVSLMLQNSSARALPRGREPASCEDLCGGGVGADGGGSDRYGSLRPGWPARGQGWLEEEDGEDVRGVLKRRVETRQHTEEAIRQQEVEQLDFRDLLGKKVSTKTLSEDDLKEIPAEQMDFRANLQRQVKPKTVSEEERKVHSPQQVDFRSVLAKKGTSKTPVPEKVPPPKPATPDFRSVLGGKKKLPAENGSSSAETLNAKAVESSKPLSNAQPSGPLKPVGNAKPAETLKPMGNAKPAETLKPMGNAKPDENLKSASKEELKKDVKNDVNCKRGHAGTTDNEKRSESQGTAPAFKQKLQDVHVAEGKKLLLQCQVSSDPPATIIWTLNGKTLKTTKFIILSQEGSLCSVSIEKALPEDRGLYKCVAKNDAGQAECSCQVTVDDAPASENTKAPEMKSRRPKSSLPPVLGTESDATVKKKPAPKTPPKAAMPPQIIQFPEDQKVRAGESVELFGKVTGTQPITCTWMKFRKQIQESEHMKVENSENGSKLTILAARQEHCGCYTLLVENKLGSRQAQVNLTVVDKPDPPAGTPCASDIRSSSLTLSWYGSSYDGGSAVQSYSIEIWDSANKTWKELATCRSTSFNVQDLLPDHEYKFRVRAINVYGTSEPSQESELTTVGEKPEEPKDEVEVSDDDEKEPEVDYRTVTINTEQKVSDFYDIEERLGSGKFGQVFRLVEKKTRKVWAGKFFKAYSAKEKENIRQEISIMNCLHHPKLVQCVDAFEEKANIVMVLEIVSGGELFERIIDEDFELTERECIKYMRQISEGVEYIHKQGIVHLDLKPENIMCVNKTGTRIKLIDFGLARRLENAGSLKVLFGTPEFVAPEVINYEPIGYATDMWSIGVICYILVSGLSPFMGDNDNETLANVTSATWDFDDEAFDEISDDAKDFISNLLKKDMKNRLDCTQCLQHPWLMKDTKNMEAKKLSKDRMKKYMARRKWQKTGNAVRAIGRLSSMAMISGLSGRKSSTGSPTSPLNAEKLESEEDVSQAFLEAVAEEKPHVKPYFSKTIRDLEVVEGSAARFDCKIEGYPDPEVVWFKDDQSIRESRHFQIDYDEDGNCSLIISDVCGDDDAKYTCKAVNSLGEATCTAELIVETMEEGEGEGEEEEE
# [10] = target: MARK1 (human) (UniProt Q9P0L2)
# [11] = target: BTK (human) (UniProt Q06187)
# [12] = target: PLK3 (human) (UniProt Q9H4B4)
# [13] = target: DSTYK (human) (UniProt Q6XUX3)
# [14] = target: MLTK (human) (UniProt Q9NYL2)
# [15] = target: CDC42BPB (human) (UniProt Q9Y5S2)
# [16] = target: MATK (human) (UniProt P42679)
# [17] = target: FGR (human) (UniProt P09769)
# [18] = target: PAK4 (human) (UniProt O96013)
# [19] = target: MAP3K2 (human) (UniProt Q9Y2U5)
# [20] = target: CSK (human) (UniProt P41240)
# Chain of CSK (human) (P41240 whole entry, looked up): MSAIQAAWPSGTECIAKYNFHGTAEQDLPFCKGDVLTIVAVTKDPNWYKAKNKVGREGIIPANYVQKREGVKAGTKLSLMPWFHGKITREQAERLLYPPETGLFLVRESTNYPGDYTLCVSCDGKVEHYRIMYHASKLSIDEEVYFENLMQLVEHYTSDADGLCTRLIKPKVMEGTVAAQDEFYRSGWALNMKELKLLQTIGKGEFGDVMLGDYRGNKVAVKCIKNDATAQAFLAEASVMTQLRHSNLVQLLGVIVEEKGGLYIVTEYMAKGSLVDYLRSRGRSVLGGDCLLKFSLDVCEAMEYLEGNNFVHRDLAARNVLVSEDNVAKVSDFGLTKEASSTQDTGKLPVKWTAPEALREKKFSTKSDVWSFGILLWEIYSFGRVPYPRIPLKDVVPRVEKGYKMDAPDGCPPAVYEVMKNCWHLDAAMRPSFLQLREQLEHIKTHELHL
# [21] = target: LRRK2 (human) (UniProt Q5S007)
# [22] = target: CAMK2A (human) (UniProt Q9UQM7)
# [23] = target: IRAK4 (human) (UniProt Q9NWZ3)
# [24] = target: ITK (human) (UniProt Q08881)
# [25] = target: GRK7 (human) (UniProt Q8WTQ7)
# [26] = target: SGK3 (human) (UniProt Q96BR1)
# [27] = target: ABL2 (human) (UniProt P42684)
# Chain of ABL2 (human) (P42684 whole entry, looked up): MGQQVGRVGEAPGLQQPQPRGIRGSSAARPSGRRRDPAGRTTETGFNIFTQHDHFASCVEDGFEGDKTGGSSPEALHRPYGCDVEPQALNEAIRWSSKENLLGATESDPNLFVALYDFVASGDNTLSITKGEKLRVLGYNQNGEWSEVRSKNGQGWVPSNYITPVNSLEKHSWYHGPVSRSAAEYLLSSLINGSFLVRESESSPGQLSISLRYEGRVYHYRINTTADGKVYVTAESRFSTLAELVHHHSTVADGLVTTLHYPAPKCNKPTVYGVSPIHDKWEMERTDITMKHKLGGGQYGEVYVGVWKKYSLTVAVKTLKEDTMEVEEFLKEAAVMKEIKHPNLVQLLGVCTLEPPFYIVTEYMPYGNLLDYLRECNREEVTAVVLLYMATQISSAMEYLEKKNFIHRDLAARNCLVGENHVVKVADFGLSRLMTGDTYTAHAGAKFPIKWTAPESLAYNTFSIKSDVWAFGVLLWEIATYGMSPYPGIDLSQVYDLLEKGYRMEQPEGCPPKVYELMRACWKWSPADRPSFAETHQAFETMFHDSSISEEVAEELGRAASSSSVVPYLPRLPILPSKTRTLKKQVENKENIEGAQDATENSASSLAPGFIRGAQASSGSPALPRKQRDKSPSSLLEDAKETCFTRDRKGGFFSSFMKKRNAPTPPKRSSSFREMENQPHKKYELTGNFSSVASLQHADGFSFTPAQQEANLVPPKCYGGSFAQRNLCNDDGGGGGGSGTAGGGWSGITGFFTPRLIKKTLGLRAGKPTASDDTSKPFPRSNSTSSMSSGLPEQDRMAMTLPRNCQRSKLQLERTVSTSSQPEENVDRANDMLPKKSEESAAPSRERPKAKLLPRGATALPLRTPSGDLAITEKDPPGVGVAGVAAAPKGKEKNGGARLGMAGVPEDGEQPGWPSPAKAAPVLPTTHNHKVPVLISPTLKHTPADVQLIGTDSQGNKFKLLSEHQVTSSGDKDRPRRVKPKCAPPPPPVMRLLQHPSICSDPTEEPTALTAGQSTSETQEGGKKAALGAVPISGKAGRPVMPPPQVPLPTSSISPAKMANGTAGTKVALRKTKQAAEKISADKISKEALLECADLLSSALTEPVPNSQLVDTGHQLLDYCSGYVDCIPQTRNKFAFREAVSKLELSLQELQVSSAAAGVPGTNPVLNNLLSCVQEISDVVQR
# [28] = target: PAK6 (human) (UniProt Q9NQU5)
# [29] = target: ADRBK1 (human) (UniProt P25098)
# [30] = target: HIPK2 (human) (UniProt Q9H2X6)
# [31] = target: ADRBK2 (human) (UniProt P35626)
# Chain of ADRBK2 (human) (P35626 whole entry, looked up): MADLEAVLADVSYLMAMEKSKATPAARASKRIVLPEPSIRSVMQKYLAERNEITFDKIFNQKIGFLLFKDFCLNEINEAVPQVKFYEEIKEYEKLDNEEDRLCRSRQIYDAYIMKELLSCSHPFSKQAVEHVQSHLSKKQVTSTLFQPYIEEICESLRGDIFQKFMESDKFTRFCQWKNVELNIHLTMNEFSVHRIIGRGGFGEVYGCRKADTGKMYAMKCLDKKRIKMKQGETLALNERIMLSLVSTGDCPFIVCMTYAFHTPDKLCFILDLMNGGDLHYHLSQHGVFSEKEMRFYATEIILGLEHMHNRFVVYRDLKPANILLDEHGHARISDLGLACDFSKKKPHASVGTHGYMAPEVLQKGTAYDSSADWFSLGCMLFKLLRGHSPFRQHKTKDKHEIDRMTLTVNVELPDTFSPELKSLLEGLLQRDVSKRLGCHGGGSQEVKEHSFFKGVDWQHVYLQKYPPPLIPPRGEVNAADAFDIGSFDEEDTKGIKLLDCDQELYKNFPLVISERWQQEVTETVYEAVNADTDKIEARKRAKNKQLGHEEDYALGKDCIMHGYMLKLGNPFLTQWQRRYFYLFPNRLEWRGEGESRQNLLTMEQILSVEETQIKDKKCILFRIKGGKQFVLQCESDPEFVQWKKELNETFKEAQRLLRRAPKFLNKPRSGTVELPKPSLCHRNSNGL
# [32] = target: PRKCB1 (human) (UniProt P05771)
# [33] = target: SGK2 (human) (UniProt Q9HBY8)
# [34] = target: PRKCE (human) (UniProt Q02156)
# [35] = target: STK10 (human) (UniProt O94804)
# [36] = target: PRKCG (human) (UniProt P05129)
# [37] = target: NEK4 (human) (UniProt P51957)
# [38] = target: CAMKK1 (human) (UniProt Q8N5S9)
# [39] = target: BMX (human) (UniProt P51813)
# Chain of BMX (human) (P51813 whole entry, looked up): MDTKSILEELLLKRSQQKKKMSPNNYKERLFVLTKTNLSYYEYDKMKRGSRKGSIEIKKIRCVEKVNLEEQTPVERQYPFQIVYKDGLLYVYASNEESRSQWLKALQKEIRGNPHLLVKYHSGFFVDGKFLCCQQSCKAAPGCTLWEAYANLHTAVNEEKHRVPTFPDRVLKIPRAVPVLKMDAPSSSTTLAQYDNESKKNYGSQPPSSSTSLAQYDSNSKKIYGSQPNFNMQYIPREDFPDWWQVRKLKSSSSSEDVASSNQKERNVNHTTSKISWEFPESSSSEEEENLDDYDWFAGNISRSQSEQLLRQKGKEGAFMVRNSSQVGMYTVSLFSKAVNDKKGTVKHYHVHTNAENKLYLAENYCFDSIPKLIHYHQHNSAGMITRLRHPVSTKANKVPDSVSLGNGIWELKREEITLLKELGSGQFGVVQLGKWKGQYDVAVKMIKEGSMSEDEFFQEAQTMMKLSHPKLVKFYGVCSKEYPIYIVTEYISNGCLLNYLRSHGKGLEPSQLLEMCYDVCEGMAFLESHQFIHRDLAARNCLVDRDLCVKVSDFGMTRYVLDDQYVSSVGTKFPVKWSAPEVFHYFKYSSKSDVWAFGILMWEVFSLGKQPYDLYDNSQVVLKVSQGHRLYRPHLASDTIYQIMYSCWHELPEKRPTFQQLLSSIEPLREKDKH
# [40] = target: TAOK3 (human) (UniProt Q9H2K8)
# [41] = target: PRKCI (human) (UniProt P41743)
# [42] = target: PRKCD (human) (UniProt Q05655)
smiles,measurement,setting,value
c1ccc2c(-c3ccncc3)c[nH]c2c1,residual activity,[1],92%
same,residual activity,[2],91.2%
same,residual activity,[3],99.9%
same,residual activity,[4],105%
same,residual activity,[5],97.9%
same,residual activity,[6],105%
same,residual activity,[7],97.1%
same,residual activity,[8],94.7%
same,residual activity,[9],96.8%
same,residual activity,[10],94.5%
same,residual activity,[11],104%
same,residual activity,[12],95.3%
same,residual activity,[13],95.9%
same,residual activity,[14],102%
same,residual activity,[15],104%
same,residual activity,[16],93.9%
same,residual activity,[17],94.5%
same,residual activity,[18],96.7%
same,residual activity,[19],94.9%
same,residual activity,[20],107%
same,residual activity,[21],92.8%
same,residual activity,[22],104%
same,residual activity,[23],109%
same,residual activity,[24],94.8%
same,residual activity,[25],98.4%
same,residual activity,[26],92.8%
same,residual activity,[27],91.9%
same,residual activity,[28],104%
same,residual activity,[29],97.7%
same,residual activity,[30],94.1%
same,residual activity,[31],95.4%
same,residual activity,[32],95.1%
same,residual activity,[33],91%
same,residual activity,[34],81.5%
same,residual activity,[35],93.7%
same,residual activity,[36],99.4%
same,residual activity,[37],95.4%
same,residual activity,[38],122%
same,residual activity,[39],95.8%
same,residual activity,[40],103%
same,residual activity,[41],82.4%
same,residual activity,[42],83.2%

# From the kinase profiling compilation of Christmann-Franck et al. (2016)
